Laboratory results from patent US7183054B2, “Assay for identifying biological targets of polynucleotide-binding compounds” (President and Fellows of Harvard College, priority 2003, dated 2007).

Legend:
Human erythrocyte GAPDH = molecular target: T1, Human erythrocyte GAPDH (Homo sapiens, UniProt P04406); assay: Southwestern blot of GAPDH with 32P-labeled dsDNA-drug complexes; assay type: binding; settings: membrane probed with 32P labeled DNA alkylated with drug
T1 construct: Human erythrocyte GAPDH (Sigma 6019) was dissovled in ddH2O; purchased Sigma 6019 (G6019); host or cells: human erythrocytes
T1 sequence (P04406 whole entry): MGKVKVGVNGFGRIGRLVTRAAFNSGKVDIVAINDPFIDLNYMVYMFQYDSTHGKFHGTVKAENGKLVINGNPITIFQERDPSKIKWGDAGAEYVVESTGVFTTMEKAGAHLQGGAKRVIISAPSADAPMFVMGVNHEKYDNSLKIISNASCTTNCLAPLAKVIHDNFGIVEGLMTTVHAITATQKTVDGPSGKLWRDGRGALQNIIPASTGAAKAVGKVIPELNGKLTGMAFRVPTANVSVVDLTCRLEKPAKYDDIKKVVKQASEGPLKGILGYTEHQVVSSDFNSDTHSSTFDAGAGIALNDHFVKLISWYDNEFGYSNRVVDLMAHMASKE
Method: FIG. 5 depicts the Southwestern blot technique using GAPDH and saframycins. FIG. 5A is a schematic of the Southwestern blot technique. […] The membranes with GAPDH were incubated with the various ^32P-labeled dsDNA-drug complexes. Lane 1: free dsDNA control; Lane 2: HQ alkylated dsDNA; Lane 3: QAD alkylated dsDNA; Lane 4: Pt 650 alkylated dsDNA; Lane 5: SafA alkylated dsDNA.
(§1) Construction of Drug-based Affinity Resin. The amino-modified QAD and its hemiaminal derivative, amino-modified HQ was prepared by coupling SafA synthetic intermediate^11 with 6-(4-Fmoc-amino-n-butoxy)-quinaldic acid followed by Fmoc deprotection. The amino-modified QAD/HQ was purified by reverse-phase HPLC and coupled to AffiGel-15. […] The amount of drug coupled to the affinity resin was determined by quantifying the drug that remained in the supernatant using reverse-phase HPLC. […] The supernatant solution was analyzed by reverse-phase HPLC. The amount of ds-oligonucleotide detected in the supernatant from the heating step was taken to be the amount of ds-oligonucleotide coupled to drug on the affinity resin in the form of stable dsDNA-drug binary complex. […] The concentration of double-stranded 21-mer DNA on the resin was determined by heat denaturing the double strand DNA on a known amount of resin and subsequently determining the concentration of complementary strand in free solution by UV spectrometry. […]

A375 melanoma = A375 melanoma tumor cell line; cited from earlier work
A549 lung carcinoma = A549 lung carcinoma tumor cell line; cited from earlier work
GAPDH [1] = molecular target: T2, GAPDH (Bos taurus, UniProt P10096); assay: Affinity chromatography with drug-alkylated dsDNA resin in bovine brain lysate (GAPDH); assay type: binding; settings: ds-oligonucleotide resin alkylated with drug; bovine brain lysate, 4° C.; silver-stained SDS-PAGE
T2 construct: from tissue; host or cells: bovine brain homogenate
T2 sequence (P10096 2-333): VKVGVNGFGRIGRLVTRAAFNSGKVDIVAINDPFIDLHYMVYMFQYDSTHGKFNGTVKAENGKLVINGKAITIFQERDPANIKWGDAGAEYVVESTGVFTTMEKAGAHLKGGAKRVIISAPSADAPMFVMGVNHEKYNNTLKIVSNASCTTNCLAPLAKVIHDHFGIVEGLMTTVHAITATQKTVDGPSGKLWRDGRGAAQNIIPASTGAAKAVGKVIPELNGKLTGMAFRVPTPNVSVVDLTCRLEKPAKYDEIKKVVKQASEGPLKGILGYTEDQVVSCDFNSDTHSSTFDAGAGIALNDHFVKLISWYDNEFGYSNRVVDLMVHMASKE

GAPDH [2] = assay: as above; assay type: binding; settings: summary statement
HMG1 = molecular target: T3, HMG1 (Bos taurus, UniProt P10103); assay: Affinity chromatography with drug-alkylated dsDNA resin in bovine brain lysate (HMG1); assay type: binding; settings: ds-oligonucleotide resin alkylated with drug; pre-cleared bovine brain lysate
T3 construct: from tissue; host or cells: bovine brain homogenate
T3 sequence (P10103 1-215): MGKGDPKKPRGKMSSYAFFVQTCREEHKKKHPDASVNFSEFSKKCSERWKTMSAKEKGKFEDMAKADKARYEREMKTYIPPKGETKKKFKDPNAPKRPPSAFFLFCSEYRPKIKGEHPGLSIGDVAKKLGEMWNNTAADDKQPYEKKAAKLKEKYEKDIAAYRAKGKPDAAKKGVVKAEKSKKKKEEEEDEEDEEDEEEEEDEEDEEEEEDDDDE
Method: FIG. 4 is a photograph of a silver-stained SDS-PA gel showing the affinity chromatography results. The affinity matrix was incubated in bovine brain lysate at 4° C., washed extensively, and heat denatured to release bound proteins. […]
as §1, with “Resin.” for “Resin. The amino-modified QAD and its hemiaminal derivative, amino-modified HQ was prepared by coupling SafA synthetic intermediate^11 with 6-(4-Fmoc-amino-n-butoxy)-quinaldic acid followed by Fmoc deprotection. The amino-modified QAD/HQ was purified by reverse-phase HPLC and coupled to AffiGel-15.”

A549 cells = assay: GI50 in GAPDH siRNA transfected A549 cells (MTS); assay type: cell-based; settings: 72 hours drug exposure

| Structure (SMILES) | radioactivity at GAPDH protein band (Human erythrocyte GAPDH) | IC50 (A375 melanoma) [nM] | IC50 (A549 lung carcinoma) [nM] | binding of 37-kDa protein (GAPDH) to drug-dsDNA binary complex (GAPDH [1]) | cellular target found (GAPDH [2]) | binding of 31-kDa protein (HMG1) to drug-dsDNA binary complex (HMG1) | GI50 change in GAPDH siRNA transfected cells vs control siRNA (A549 cells) | GI50 change in GAPDH siRNA transfected cells vs control siRNA (A549 cells; listed as cis-platin) |
| --- | --- | --- | --- | --- | --- | --- | --- | --- |
| COC1=C(C)C(=O)C2=C(C1=O)[C@@H]1[C@@H]3CC4=C(C(=O)C(OC)=C(C)C4=O)[C@H](CNC(=O)C(C)=O)N3[C@@H](C#N)[C@H](C2)N1C [(−)-Saframycin A] | radioactivity was detected | 5.3 | 133 | bind specifically | target cellular GAPDH |  |  |  |
| COc1cc2c(cc1O)CCN[C@]21CS[C@@H]2c3c(OC(C)=O)c(C)c4c(c3[C@H](COC1=O)N1[C@@H]2[C@H]2c3c(cc(C)c(OC)c3O)C[C@@H]([C@@H]1O)N2C)OCO4 [Ecteinascidin 743] |  | 0.15 | 1 |  | target cellular GAPDH |  |  |  |
| COc1c(C)cc2c(c1O)[C@@H]1[C@@H]3Cc4c(OC(C)=O)c(C)c5c(c4[C@H](CN4C(=O)c6ccccc6C4=O)N3[C@@H](C#N)[C@H](C2)N1C)OCO5 [Pt 650, phthalascidin] | radioactivity was detected |  |  | bind specifically |  |  |  |  |
| N.N.[Cl][Pt][Cl] [cisplatin] |  |  |  | did not bind |  | bind specifically | nearly the same sensitivity | unchanged |
| N.N.[Cl][Pt+2][Cl] [transplatin] |  |  |  | did not bind |  | did not recruit any protein |  |  |
